# Measurements as given in paper PMC8280143, “A novel dephosphorylation targeting chimera selectively promoting tau removal in tauopathies” (Signal Transduction and Targeted Therapy, 2021).
# Entries after “also recorded” stand apart in the source; their conditions may differ.
# Tests used:
# [1] = system: primary rat hippocampal neurons; assay: Cell penetrability assessment in cultured primary hippocampal neurons; assay type: in vitro ADME; settings: FITC-labeled DEPTAC 100 μM, 24 h, fixed; laser-scanning microscopy (fluorescence)
# Experimental: Primary hippocampal neurons were prepared from E12–E15 days SD rat embryos. Briefly, pregnant rats were acutely executed, hippocampus was dissected on ice and gently minced in DME/F12 (Hyclone) then suspended in 0.125% (vol/vol) trypsin solution at 37 °C for 20 min. Enzymatic activity was stopped by fetal bovine serum. Neurons were initially kept in 10% FBS-containing DME/F12 for 4–6 h, and subsequently cultured in Neurobasal (Hyclone) with 2% B27, 1% glutamax and 1% penicillin–streptomycin (Thermo Fisher Scientific) in dishes pre-coated with 100 μg/mL poly-D-lysine. Serum was gradually removed by replacing half of the medium for each time within the following 2 days. Especially, to inhibit the proteasome-dependent proteolysis, the cultured hippocampal neurons were treated with 5 μM MG132 for 5 h before harvest.
# FITC-labeled DEPTAC (100 μM) was dissolved in sterilized water, and administrated into the medium of cultured primary rat hippocampal neurons for 24 h. Neurons were fixed with 4% paraformaldehyde, co-stained with DAPI (Beyotime), and then washed with PBS for 3 × 5 min. FITC was observed under a laser-scanning microscopy (Zeiss).
# pS396-tau = pS396-tau immunostaining in the DG of Tau368 mice; assay type: in vivo, mouse; settings: DEPTAC for a consecutive month after stopping dox; **p < 0.01, n = 4–5 mice
# Experimental: (§1) For 2-month male C57BL/6 mice, 10 mM FITC-labeled or unlabeled-DEPTAC were directly injected through the tail vein or lateral ventricle for the evaluation of BBB-penetrability. For 9-month 3×Tg AD mice or Tau368 (20–30 g body weight), unlabeled-DEPTAC (5 mM, 1 μL for each time) was delivered for once into the lateral ventricle through direct stereotaxic injection, or repeatedly administrated through guiding cannulas (RWD, Shenzhen, China) implanted into the lateral ventricle once every 3 days for a consecutive month to test its dephosphorylation efficiency. Mice were restricted in a custom designed device and stayed awake during drug administration, and sacrificed at 24 h post the single or last DEPTAC administration.
# Cultured neurons were fixed with 4% paraformaldehyde for 15 min. For animal experiments, mice were anesthetized with 1% pentobarbital sodium and intracardially perfused with normal saline followed by 4% paraformaldehyde (in 0.1 M phosphate buffer, pH 7.4). Mice brains were removed, post-fixed in 4% PFA for 12 h, and then cryoprotected in 20% and 30% sucrose solutions in turn. Fifty micrometer brain sections were sliced using a cryostat microtome (Leica). […]
# [2] = system: microtubules in neurites of hippocampal neurons of Tau368 mice; assay: Electron microscopy of microtubule bundles; assay type: in vivo, mouse; settings: dox 2 months
# Experimental: as §1
# Mice were killed by overdose 1% pentobarbital sodium. Hippocampal tissues were isolated on ice, fixed in 2.5% glutaraldehyde at 4 °C for 24 h, washed in 0.1 M phosphate buffer, and post-fixed in 1% osmium acid for 2 h. After washed with phosphate buffer, tissues were dehydrated in increasing gradient of ethanol (30–100%), and incubated in turn with acetone/epoxy (2:1), acetone/epoxy (1:1) and epoxy for 12 h each at 37 °C. Tissues were subsequently embedded in epoxy at 37 °C for 48 h. Sections of 100 nm were sliced using a ultramicrotome (EM UC7, Leica), and stained in a buffer containing 2% uranium acetate and lead citrate at room temperature for 15 min. Images were taken by a transmission electron microscope (Tecnai G^2 20 TWIN, FEI). Bundles density and length were analyzed using ImageJ.
# [3] = system: human tau in HEK293(hTau) cells; assay: Tau dephosphorylation and reduction in hTau-expressed HEK293 cells; assay type: cell-based; settings: Supplementary Fig. S4; by contrast to neurons
# Experimental: HEK293 cells with stable expression of wild-type full-length human tau (term as HEK293(hTau) cells), were cultured in DMEM (Hyclone, SH30022.01) containing 10% fetal bovine serum (Biological Industries, 04–001-1ACS) and […] G418 (Thermo Fisher Scientific, 10,131,027) under 5% CO2, 37 °C.
# Cultured cells or hippocampus tissues were collected on ice, and homogenized with RIPA lysis buffer containing 50 mM Tris-HCl, 100 mM NaCl, 1% Triton X-100, 5 mM EDTA, and 1:100 PMSF, and then centrifuged at 12,000 × g for 20 min. The supernatant was collected for the analysis of soluble proteins. In some experiments, the pellets were further incubated with 8% SDS buffer at 37 °C and then ultrasound for 60 times to reach a complete resuspension for the analysis of insoluble tau. Protein concentration was measured through BCA assays (Thermo Fisher). Equal amount of protein from each sample were separated in SDS-PAGE gels, and then transferred onto nitrocellulose or 0.22 μm polyvinylidene fluoride membranes (Merck Millipore). […] Blots were visualized using ECL luminol reagent (P0018FS, Beyotime), and quantified using ImageJ software.
# [4] = then 1-month DEPTAC, *p < 0.05, n = 5 mice, 12–23 view fields
substance,measurement,setting,value
"(1) YQQYQDATADEQG, originates from the porcine β-tubulin 422–434 for recognizing and binding tau proteins.[5],[6] (2) GSGS, a linker for increasing the flexibility of the peptide.[15] (3) KKVAVVRTPPKSP, for recruiting PP2A-Bα,[16] and (4) RRRRRRRR [DEPTAC, DEPhosphorylation TArgeting Chimera; 38 amino acid residues, C185H314N72O56]",neuron penetrability in vitro,[1],high neuron penetrability; also recorded: High cell penetrability
same,level of pS396-tau immunostaining in the DG,pS396-tau,ameliorated
same,density of microtubule bundles,[2]; [4],significantly reversed
same,length of microtubule bundles,[2]; [4],significantly reversed
same,microtubule disassembly in morphology,[2]; then DEPTAC for a consecutive month,efficiently reversed
same,effectiveness in dephosphorylating and reducing tau in hTau-expressed HEK293 cells,[3],relatively limited effectiveness
